Test results reported in patent US12466839B2, “Allosteric AKT inhibitors for use in the treatment of Hereditary Hemorrhagic Telangiectasia” (VADERIS THERAPEUTICS AG, priority 2020, dated 2025).

Legend:
IP1 = target: T1, IP1 (Homo sapiens, UniProt P43119); assay: Millipore Drug Discovery Safety and Liability Panel; assay type: cell-based
T1 construct: purchased Millipore

EP2 = target: T2, EP2 (Homo sapiens, UniProt P43116); assay: as above; assay type: cell-based
T2 construct: purchased Millipore

AKT1 = AKT1 (Homo sapiens, UniProt P31749); assay: Panel of 450 kinases; assay type: biochemical
tumor xenograft = assay: Tumor xenograft model; assay type: in vivo
OT = target: T3, OT (Homo sapiens, UniProt P30559); assay: Millipore Drug Discovery Safety and Liability Panel; assay type: cell-based
T3 construct: Millipore

M1 = target: T4, M1 (Homo sapiens, UniProt P11229); assay: as above; assay type: cell-based
T4 construct: purchased Millipore

VPAC2 = target: T5, VPAC2 (Homo sapiens, UniProt P41587); assay: as above; assay type: cell-based
T5 construct: Millipore

H3 = target: T6, H3 (Homo sapiens, UniProt Q9Y5N1); assay: as above; assay type: cell-based
T6 construct: purchased Millipore

C5aR = target: T7, C5aR (Homo sapiens, UniProt P21730); assay: as above; assay type: cell-based
T7 construct: purchased Millipore

5-HT1A = target: T8, 5-HT1A (Homo sapiens, UniProt P08908); assay: as above; assay type: cell-based
T8 construct: purchased Millipore

ETB = target: T9, ETB (Homo sapiens, UniProt P24530); assay: as above; assay type: cell-based
T9 construct: purchased Millipore

V2 = target: T10, V2 (Homo sapiens, UniProt P30518); assay: as above; assay type: cell-based
T10 construct: Millipore

PRP = target: T11, PRP (Homo sapiens, UniProt P49683); assay: as above; assay type: cell-based
T11 construct: Millipore

CGRP1 = target: T12, CGRP1 (Homo sapiens, UniProt O60894+Q16602); assay: as above; assay type: cell-based
T12 construct: purchased Millipore

PAF = target: T13, PAF (Homo sapiens, UniProt P25105); assay: as above; assay type: cell-based
T13 construct: Millipore

CysLT1 = target: T14, CysLT1 (Homo sapiens, UniProt Q9Y271); assay: as above; assay type: cell-based
T14 construct: purchased Millipore

NK1 = target: T15, NK1 (Homo sapiens, UniProt P25103); assay: as above; assay type: cell-based
T15 construct: purchased Millipore

PAC1 = target: T16, PAC1 (Homo sapiens, UniProt P41586); assay: as above; assay type: cell-based
T16 construct: Millipore

OPRD1 = target: T17, OPRD1 (Homo sapiens, UniProt P41143); assay: as above; assay type: cell-based
T17 construct: Millipore

[1] = read-out: ANTAGONIST mean % inhibition
[2] = read-out: AGONIST mean % increase in activity

T11 sequence (P49683 whole entry): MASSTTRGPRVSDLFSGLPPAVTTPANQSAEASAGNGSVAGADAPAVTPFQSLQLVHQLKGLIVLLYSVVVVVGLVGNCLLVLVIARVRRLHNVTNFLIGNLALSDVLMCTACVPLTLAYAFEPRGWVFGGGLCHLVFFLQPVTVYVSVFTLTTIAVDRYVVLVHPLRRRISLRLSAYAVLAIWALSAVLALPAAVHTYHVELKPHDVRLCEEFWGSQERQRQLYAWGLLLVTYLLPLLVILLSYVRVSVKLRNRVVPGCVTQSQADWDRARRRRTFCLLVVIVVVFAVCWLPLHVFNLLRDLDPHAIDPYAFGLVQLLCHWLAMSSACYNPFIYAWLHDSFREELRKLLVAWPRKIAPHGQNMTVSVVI
T13 sequence (P25105 whole entry): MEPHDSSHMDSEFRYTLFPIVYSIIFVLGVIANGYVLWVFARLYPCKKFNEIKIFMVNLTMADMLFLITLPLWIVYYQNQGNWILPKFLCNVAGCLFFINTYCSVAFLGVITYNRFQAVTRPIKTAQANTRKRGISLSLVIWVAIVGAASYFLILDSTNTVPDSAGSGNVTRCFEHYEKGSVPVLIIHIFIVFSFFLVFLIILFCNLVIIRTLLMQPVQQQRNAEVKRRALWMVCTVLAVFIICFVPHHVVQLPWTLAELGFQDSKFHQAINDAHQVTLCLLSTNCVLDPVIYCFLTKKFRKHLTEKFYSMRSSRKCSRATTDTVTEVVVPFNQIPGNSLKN
T16 sequence (P41586 21-468): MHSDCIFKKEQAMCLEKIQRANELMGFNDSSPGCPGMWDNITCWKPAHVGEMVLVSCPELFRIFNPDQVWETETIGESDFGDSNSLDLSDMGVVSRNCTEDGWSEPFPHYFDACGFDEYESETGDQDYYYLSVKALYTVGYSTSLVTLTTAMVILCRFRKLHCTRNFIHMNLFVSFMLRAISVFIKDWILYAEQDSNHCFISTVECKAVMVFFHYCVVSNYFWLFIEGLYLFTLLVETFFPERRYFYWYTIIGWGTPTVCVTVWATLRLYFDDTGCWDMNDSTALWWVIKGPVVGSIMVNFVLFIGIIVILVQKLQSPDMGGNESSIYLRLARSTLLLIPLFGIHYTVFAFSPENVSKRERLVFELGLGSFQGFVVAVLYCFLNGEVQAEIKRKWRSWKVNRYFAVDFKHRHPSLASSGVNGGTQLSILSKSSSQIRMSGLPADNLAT
T9 sequence (P24530 27-442, species assumed): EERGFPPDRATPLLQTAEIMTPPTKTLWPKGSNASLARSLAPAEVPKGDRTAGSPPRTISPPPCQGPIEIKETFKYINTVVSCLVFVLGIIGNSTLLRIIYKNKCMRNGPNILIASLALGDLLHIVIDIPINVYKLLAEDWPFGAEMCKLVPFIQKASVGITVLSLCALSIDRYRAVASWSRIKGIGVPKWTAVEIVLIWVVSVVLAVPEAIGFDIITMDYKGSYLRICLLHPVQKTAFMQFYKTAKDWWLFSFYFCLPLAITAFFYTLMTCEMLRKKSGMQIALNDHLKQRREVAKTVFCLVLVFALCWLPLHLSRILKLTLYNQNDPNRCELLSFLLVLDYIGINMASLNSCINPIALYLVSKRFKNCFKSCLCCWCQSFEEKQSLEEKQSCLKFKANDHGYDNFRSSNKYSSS
T5 sequence (P41587 24-438): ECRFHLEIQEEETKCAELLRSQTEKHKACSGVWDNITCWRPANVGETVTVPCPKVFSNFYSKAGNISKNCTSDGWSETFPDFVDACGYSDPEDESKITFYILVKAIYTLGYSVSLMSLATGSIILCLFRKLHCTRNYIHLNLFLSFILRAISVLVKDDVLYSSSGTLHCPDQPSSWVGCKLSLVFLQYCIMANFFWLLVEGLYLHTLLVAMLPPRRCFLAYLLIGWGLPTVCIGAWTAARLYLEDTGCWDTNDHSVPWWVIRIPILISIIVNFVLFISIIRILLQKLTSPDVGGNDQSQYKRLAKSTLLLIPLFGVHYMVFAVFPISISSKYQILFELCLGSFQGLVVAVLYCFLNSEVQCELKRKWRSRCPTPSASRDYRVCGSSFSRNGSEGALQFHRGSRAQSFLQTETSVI
T2 sequence (P43116 whole entry): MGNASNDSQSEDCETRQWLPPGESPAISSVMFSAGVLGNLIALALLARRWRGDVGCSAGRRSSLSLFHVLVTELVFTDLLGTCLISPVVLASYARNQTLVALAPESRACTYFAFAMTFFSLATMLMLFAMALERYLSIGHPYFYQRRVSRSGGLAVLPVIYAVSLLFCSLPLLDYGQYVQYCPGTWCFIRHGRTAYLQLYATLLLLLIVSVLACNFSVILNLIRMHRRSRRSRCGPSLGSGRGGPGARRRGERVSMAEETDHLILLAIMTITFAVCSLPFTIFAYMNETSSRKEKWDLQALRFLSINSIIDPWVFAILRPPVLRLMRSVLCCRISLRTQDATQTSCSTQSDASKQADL
T8 sequence (P08908 whole entry, species assumed): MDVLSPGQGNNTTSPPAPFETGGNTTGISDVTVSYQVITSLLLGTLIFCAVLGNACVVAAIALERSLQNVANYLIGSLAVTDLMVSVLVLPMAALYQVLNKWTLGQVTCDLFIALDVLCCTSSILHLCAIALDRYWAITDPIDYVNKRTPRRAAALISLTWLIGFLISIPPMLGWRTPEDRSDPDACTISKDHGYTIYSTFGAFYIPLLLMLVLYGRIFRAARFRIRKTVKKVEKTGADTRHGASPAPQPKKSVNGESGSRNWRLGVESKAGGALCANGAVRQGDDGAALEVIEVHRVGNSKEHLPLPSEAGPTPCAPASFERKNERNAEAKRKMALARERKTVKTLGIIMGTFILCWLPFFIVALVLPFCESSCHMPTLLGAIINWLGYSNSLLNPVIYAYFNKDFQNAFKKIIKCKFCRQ
T10 sequence (P30518 whole entry): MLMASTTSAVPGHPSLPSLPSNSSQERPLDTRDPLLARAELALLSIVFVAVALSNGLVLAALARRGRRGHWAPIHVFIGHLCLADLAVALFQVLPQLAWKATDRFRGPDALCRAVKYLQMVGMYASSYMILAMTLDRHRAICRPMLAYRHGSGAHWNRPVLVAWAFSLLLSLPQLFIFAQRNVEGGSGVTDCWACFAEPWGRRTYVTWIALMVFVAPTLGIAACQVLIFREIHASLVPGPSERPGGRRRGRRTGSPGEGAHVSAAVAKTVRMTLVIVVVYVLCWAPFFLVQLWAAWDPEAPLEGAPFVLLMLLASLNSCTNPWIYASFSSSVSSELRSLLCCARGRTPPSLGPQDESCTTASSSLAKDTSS
T17 sequence (P41143 whole entry, species assumed): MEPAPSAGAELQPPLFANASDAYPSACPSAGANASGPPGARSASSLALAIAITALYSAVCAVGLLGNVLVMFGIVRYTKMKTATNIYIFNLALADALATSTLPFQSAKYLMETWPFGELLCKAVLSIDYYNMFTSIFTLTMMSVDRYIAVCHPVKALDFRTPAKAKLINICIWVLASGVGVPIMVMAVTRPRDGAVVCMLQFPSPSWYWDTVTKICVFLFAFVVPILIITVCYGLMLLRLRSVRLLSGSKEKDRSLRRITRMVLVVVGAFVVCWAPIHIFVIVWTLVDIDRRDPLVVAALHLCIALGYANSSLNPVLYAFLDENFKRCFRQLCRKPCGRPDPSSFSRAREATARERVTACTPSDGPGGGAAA
T14 sequence (Q9Y271 whole entry): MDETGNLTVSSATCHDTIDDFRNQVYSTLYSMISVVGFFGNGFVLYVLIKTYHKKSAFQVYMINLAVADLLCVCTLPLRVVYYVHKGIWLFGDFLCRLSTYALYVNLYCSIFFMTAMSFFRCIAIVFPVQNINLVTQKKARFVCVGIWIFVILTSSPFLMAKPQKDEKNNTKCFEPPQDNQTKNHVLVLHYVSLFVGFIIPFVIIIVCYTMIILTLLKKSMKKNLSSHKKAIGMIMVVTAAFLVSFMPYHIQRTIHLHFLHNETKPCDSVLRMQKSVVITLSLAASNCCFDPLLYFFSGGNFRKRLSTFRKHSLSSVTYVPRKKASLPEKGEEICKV
T3 sequence (P30559 whole entry): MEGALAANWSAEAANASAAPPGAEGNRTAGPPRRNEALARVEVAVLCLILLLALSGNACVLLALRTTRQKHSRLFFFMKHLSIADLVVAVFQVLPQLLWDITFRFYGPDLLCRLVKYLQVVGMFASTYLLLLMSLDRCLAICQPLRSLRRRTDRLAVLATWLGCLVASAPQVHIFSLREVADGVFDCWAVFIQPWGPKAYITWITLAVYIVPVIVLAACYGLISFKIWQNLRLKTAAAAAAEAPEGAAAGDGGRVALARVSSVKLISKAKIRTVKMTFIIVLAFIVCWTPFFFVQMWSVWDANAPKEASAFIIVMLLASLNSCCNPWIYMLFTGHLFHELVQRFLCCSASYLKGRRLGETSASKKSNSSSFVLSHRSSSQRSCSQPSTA
T1 sequence (P43119 whole entry): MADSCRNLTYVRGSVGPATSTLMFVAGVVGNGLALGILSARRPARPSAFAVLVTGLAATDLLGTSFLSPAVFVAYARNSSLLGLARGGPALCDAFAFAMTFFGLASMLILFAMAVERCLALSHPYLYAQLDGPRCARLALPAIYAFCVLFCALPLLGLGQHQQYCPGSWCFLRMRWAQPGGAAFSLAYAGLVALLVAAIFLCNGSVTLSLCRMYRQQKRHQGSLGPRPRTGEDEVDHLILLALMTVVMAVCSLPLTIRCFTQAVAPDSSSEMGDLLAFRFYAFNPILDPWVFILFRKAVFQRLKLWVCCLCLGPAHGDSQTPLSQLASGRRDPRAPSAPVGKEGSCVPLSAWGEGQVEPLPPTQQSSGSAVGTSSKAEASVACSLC

`CCN1C(=O)COc2nc(-c3ccc(C4(N)CC(O)C4)cc3)c(-c3ccccc3)cc21.O=C(O)C(O)C(O)C(=O)O` [VAD044, 6-(4-(1-amino-3-hydroxycyclobutyl)phenyl)-1-ethyl-7-phenyl-1H-pyrido[2,3-b][1,4]oxazin-2(3H)-one L-tartrate] was tested, and the activation at 10 µM (IP1; IP1, 10 μM, read-out: AGONIST mean % increase in activity) was 1.1%, the inhibition at 10 µM (IP1; [1]) was -2.6% and the activation at 10 µM (EP2; EP2, 10 μM, read-out: AGONIST mean % increase in activity) was -1%. The inhibition at 10 µM (EP2; [1]) was -0.5%, the inhibition at 10 µM (AKT1) was 89% and the “minimal effective dose in vivo” value (tumor xenograft) was 30 mg/kg. For the same molecule, the activation at 10 µM (OT; [2]) was -1.2%, the inhibition at 10 µM (OT; [1]) was 29.5% and the activation at 10 µM (M1; M1, 10 μM, read-out: AGONIST mean % increase in activity) was -0.7%. It also gave an inhibition at 10 µM (M1; [1]) of -3.4%, an activation at 10 µM (VPAC2; VPAC2, 10 μM, read-out: AGONIST mean % increase in activity) of 0% and an inhibition at 10 µM (VPAC2; [1]) of 6.2%. For the same molecule, the activation at 10 µM (H3; H3, 10 μM, read-out: AGONIST mean % increase in activity) was -0.6%, the inhibition at 10 µM (H3; [1]) was 3.5% and the activation at 10 µM (C5aR; C5aR, 10 μM, read-out: AGONIST mean % increase in activity) was -1.2%. For the same molecule, the inhibition at 10 µM (C5aR; [1]) was 1.5%, the activation at 10 µM (5-HT1A; [2]) was 2.1% and the inhibition at 10 µM (5-HT1A; [1]) was 30.6%. It also gave an activation at 10 µM (ETB; ETB, 10 μM, read-out: AGONIST mean % increase in activity) of -1.1%, an inhibition at 10 µM (ETB; [1]) of 2.9% and an activation at 10 µM (V2; [2]) of -1.5%. For the same molecule, the inhibition at 10 µM (V2; [1]) was 22.8%, the activation at 10 µM (PRP; [2]) was -0.5% and the inhibition at 10 µM (PRP; [1]) was 23.2%. It also gave an activation at 10 µM (CGRP1; CGRP1, 10 μM, read-out: AGONIST mean % increase in activity) of -0.1%, an inhibition at 10 µM (CGRP1; [1]) of -7.9% and an activation at 10 µM (PAF; [2]) of -0.9%. For the same molecule, the inhibition at 10 µM (PAF; [1]) was 21%, the activation at 10 µM (CysLT1; CysLT1, 10 μM, read-out: AGONIST mean % increase in activity) was -0.8% and the inhibition at 10 µM (CysLT1; [1]) was 1.5%. For the same molecule, the activation at 10 µM (NK1; NK1, 10 μM, read-out: AGONIST mean % increase in activity) was -1.4%, the inhibition at 10 µM (NK1; [1]) was 2.4% and the activation at 10 µM (PAC1; PAC1, 10 μM, read-out: AGONIST mean % increase in activity) was -0.6%. The inhibition at 10 µM (PAC1; [1]) was 1.1%, the activation at 10 µM (OPRD1; OPRD1, 10 μM, read-out: AGONIST mean % increase in activity) was -0.9% and the inhibition at 10 µM (OPRD1; [1]) was 2.8%.
